One experiment deals with JAK1 (Homo sapiens (Human), UniProt P23458). In words: Jak Biochemical HTRF Assay (JAK1). The note with it: recombinant purified GST-tagged catalytic domain; HTRF; [ATP] 31.8 μM; [E] 1.405 nM.
The target of another experiment is JAK2 (Homo sapiens (Human), UniProt O60674). In words: Jak Biochemical HTRF Assay (JAK2). Particulars: recombinant purified GST-tagged catalytic domain, [ATP] 8.5 μM, [E] 0.052 nM.
JAK2, sequence (O60674 849-1124): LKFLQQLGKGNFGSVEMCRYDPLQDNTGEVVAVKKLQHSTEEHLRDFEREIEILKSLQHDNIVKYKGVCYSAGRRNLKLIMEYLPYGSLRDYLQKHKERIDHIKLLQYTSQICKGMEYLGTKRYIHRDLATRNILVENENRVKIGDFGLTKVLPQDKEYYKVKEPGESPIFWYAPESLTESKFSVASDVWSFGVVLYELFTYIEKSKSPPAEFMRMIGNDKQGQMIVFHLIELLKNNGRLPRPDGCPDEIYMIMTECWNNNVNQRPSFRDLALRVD

JAK1, sequence (P23458 875-1153): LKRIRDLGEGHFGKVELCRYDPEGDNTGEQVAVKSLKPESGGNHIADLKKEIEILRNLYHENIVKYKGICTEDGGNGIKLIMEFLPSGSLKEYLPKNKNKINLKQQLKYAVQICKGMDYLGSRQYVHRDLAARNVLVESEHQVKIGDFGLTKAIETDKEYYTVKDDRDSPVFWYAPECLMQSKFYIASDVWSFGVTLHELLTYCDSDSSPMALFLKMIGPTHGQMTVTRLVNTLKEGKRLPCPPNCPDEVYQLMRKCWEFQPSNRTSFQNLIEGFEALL

Turning to `CCC1(n2nc(Nc3ccc(C(=O)N4CCOC[C@H]4C(C)C)c(C)c3)c3c(=O)[nH]ccc32)CCN(C(=O)OC(C)(C)C)CC1` [Example 3-8, tert-butyl 4-ethyl-4-{3-[(3-methyl-4-{[(3R)-3-(1-methylethyl)morpholin-4-yl]carbonyl}phenyl)amino]-4-oxo-4,5-dihydro-1H-pyrazolo[4,3-0]pyridin-1-yl} piperidine-1-carboxylate], the IC50 on JAK1 came to 0.93 nM; at JAK2 it was 1.01 nM.

Broadly, the IC50 is the point on the concentration scale where inhibition reaches its midpoint.

(Values after patent publication US10072025B2, “Ethyl N-boc piperidinyl pyrazolo pyridones as Janus kinase inhibitors” (Merck Sharp & Dohme Corp., priority 2014, dated 2018).)
